# Test results reported in a melting point compilation (Tetko et al.; mined from patent text by program, amines drawn as free bases though some values may be those of a salt).
row,Compound,melting point [°C]
1,NS(=O)(=O)c1cc(C(=O)CCCC(=O)O)cc2c1OCC2,207 to 209
2,CCOC(=O)c1cn(-c2cccnc2)cn1,102 to 103
3,COc1ccc(C(=O)Nc2ccc3ccc(Nc4ccccc4)nc3n2)cc1,245
4,O=C1NCCN(CC(=O)N2CCOCC2)C1c1cccs1 (stereo unspecified),190 to 193
5,C(=NNc1nc(OCCc2ccccn2)nc(N2CCOCC2)n1)c1c[nH]c2ccccc12,158 to 161
6,CN(C)c1ccc2c(c1)Sc1cc(OC(=O)c3ccccc3)ccc1N2C(=O)c1ccccc1,194 to 200
7,CC(C)(C)NC(=O)[C@@H]1CC(OCCCCF)CN1C(=O)[C@@H](O)[C@H](Cc1ccccc1)NC(=O)[C@H](CC(N)=O)NC(=O)OCc1ccccc1 (stereo partly specified),68 to 71
8,CN1CC=C(c2c[nH]c3ccc(NC(N)=S)cc23)CC1,209 to 211
9,COc1ccc([C@@H]2CC=CC[C@H]2[N+](=O)[O-])cc1OC (racemic),114 to 116
10,Cc1sc2c(c1CCN1CCC(c3noc4cc(F)ccc34)CC1)CCNC2,88 to 90
11,COc1ccc(C(=O)O)c(Sc2ccc(SC)cc2)c1,202 to 203
12,C[C@H]([C@](O)(Cn1cncn1)c1ccc(F)cc1F)S(=O)(=O)CC(N)=O,184 to 185
13,c1cc2c3c(c[nH]c3c1)CC1NCCOC21 (stereo unspecified),175 to 177
14,Cc1csc2nc(C(=O)O)cn12,196 to 197
15,COc1cc2ncc(C#N)c(Nc3ccc(F)c(Cl)c3)c2cc1NC(=O)C=CCN(CC(C)O)CC(C)O (stereo unspecified),122 to 125
16,O=C(NN1CCN(Cc2c[nH]c3ccccc23)CC1)c1ccccc1,176 to 178
17,O=C(NC(=Cc1ccccc1)c1ccccc1)C(F)(F)F,148 to 150

row,Compound,melting point [°C]
1,COc1ccc(C2(O)c3c(C)c(NC(=O)CC(C)(C)C)c(C)c(C)c3OC2(C)C)cc1 (stereo unspecified),98 to 99
2,CCNC(=O)Nc1ccc(-c2cc3c(Nc4cccc(Cl)c4)ncnc3[nH]2)cc1,> 290
3,Oc1ccc(CN2CCN(CCCN3CCN(Cc4ccc(O)cc4)CC3)CC2)cc1,197 to 201
4,Cc1csc(C)c1N(N)C(=O)CN,68 to 70
5,Brc1ccc(Nc2ncc3cc4ccccc4n3n2)cc1,237 to 243
6,Cc1c(C(=O)Nc2ccc(N3CCC(N4CCOCC4)CC3)c(C#N)c2)cnn1Cc1ccccc1,155
7,O=C(c1ccccc1)c1c[nH]c2cnccc12,218 to 220
8,O=C(Cc1ccc(Cl)c([N+](=O)[O-])c1)N[C@H]1C[C@H](C(=O)O)Nc2cc(Cl)cc(Cl)c21 (relative stereo),233 to 235
9,NC(=O)Cn1c(Cl)ccc1Cl,183 to 184
10,Cn1ccc(=O)c(O)c1CC(O)c1cccnc1 (stereo unspecified),215 to 220
11,COCOc1ccc(OCc2ccccc2)c(CBr)c1,55 to 57
12,CCOC(=O)C(CC)=C(C)NC(=O)Nc1cc(C(=O)OC(C)C)c(Cl)cc1F,112 to 115
13,COC(=O)[C@H](Cc1ccc(OS(=O)(=O)C(F)(F)F)cc1)NC(=O)OC(C)(C)C,47 to 48
14,O=CC(=O)c1ccc(Oc2cccc(C(F)(F)F)c2)cc1,73 to 80
15,COc1ccc(CN(C)CCCc2ccc(NC(=O)c3cccc4c(=O)c5cccc([N+](=O)[O-])c5[nH]c34)cc2)cc1OC,192
16,COc1c(Cl)ccc(-c2cc(N)c(OC(F)F)c(Cl)n2)c1F,152 to 154

# The remaining lines, values ahead:
row,melting point [°C],Compound
1,126 to 128,COc1c(C)cc(NC(=O)C(C)(C)C)cc1C
2,270,COc1ccc(N2CCN(c3ccc(Nc4nc(-c5ccccc5)cs4)cc3)CC2)cc1
3,76,C=C(C)C(=O)OCCCCc1cc(-c2ccc(OC(=O)C(=C)C)cc2)ccc1OC(=O)C(=C)C
4,135,CCOC(=O)C(=O)NNC(=O)c1cc2sc(C)c(N(C)S(=O)(=O)c3cccs3)c2[nH]1
5,68 to 70,CCc1cc(NC(=O)N2CCN(c3cc(OC)cc(OC)c3)CC2)c(N2CCNCC2)nc1C
6,232 to 233,Cc1nc(-c2ccsc2)c2nc(-c3ccccc3)cc-2[nH]1
7,193 to 198,CC(=O)Nc1cc(C)c2c(c1O)C(=O)CC2
8,88 to 89,CCOC(=O)CCCCCCCn1c(=O)[nH]c2ccccc2c1=O
9,91 to 95,COC(=O)c1cccc(CBr)c1[N+](=O)[O-]
10,201,COc1ncc(NS(=O)(=O)c2cccc3c(N(C)C)cccc23)c(OC)n1
11,157 to 158,Cc1cccc(NC(=O)N(C)c2nc(-c3ccccc3)c(-c3ccc(=O)n(C(C)C)n3)s2)c1
12,83 to 87,O=c1c(Cl)c(OCc2ccc(Cl)cc2)cnn1CCCBr
13,100 to 104,Cc1ccc(Cc2cnc(NCCCN(Cc3cccc(Cl)c3)c3ccccn3)[nH]c2=O)cn1
14,177 to 179,CC(=O)Nc1c(C(=O)c2ccccc2)[nH]c2cc(C(F)(F)F)ccc12
15,220 to 221,NC(=O)c1ncn2c1CN(C(=O)N1CCOCC1)c1ccccc1-2
16,216 to 219,COc1cc(NS(=O)(=O)c2ccc(Cl)cc2)c(C(=O)Nc2ccc(S(=O)(=O)N3CCSCC3)cc2)cc1OC
17,123 to 125,CN(C(=O)OC(C)(C)C)c1cc(Oc2ccc(-c3ccc(OCc4ccccc4)cc3)cc2)ccc1[N+](=O)[O-]
18,174 to 175,Cc1oc2c(-n3c(=O)cc(C(F)(F)F)n(C)c3=O)ccc(Cl)c2c1[N+](=O)[O-]
19,196,CCCCn1c(N)nc2ccc(C3CCc4cncn43)cc21 (stereo unspecified)

row,melting point [°C],Compound
1,67 to 68,COC(=O)CCCC=Cc1nn(-c2ccc(F)cc2)c2c1CCC2
2,112 to 114,CC(=O)SCCN1C(=O)c2ccccc2C1=O
3,49,CCOC(=O)NCC#N
4,180 to 182,CN(CC(=O)O)Cc1cc(C(=O)c2cccs2)cc(C(C)(C)C)c1O
5,166 to 168,CCOc1csc2ccc(C(=O)c3cnoc3C3CC3)c(SC)c12
6,101 to 103,O=Cc1cc2ccccc2n1-c1cccnc1
7,127 to 129,O=C1CC[C@@H](c2ccccc2)[C@H](c2ccccc2)N1CO (relative stereo)
8,150 to 152,COC(C)(C)C(=O)O[C@H]1C[C@H](O)C=C2C=C[C@H](C)[C@H](CC[C@@H]3C[C@@H](O)CC(=O)O3)[C@H]21
9,103 to 105,COc1ccc([C@H]2CC[C@H](c3ccc(OC)c(OC)c3)S2)cc1OC (relative stereo)
10,206 to 208,COc1cc(Nc2c(C#N)cnc3cc(-c4ccc(CN5CCN(C)CC5)s4)ccc23)c(Cl)cc1Cl
11,99 to 100,CCC(C)C1Sc2ccccc2NC1=O (stereo unspecified)
12,66,CC(C)OC(=O)NS(=O)(=O)Cl
13,140 to 142,O=C(O)c1ccc(F)s1
14,218 to 220,CC(CN1C(=O)c2ccccc2C1=O)c1c[nH]c2ccc(C#N)cc12 (stereo unspecified)
15,157 to 158,CC(C)COc1ccc2c(n1)CC(c1ccccc1)CC2=O (stereo unspecified)
16,128 to 132,CC(C)=CCOc1c(-c2ccc(S(C)(=O)=O)cc2)cnn(-c2ccc(F)cc2)c1=O
17,255 to 256,c1ccc2c(c1)nc1snc(-c3cnccn3)n12
18,189 to 191,Cc1ccc(-c2c(CC(=O)O)c(C3CCCCC3)nn2-c2ccccc2)cc1
19,96 to 102,CCCCCCCCCCCCCCCCCC(=O)c1ccc(C(=O)O)c(Cl)c1
